Data set [1] deals with SARS-CoV-2. Kind of data set: ENTRY-DYRA (entry inhibitor protocol), SARS-CoV-2 in Calu-3 cells. It is filed as cell-based. As to conditions: Calu-3 cells treated 1 h before infection, compound and virus removed, 72 h incubation.
The conditions of data set [2]: PAMPA; cited from earlier work. Background: In PAMPA a lipid-coated filter parts donor from acceptor wells.
Another data set has as its system Enterovirus-A71 (EV-A71). Further details: method as in PMID 28122178, PMID 31729878. As to conditions: at low micromolar concentration; cited from earlier work.
Another data set relates to ZIKV. Kind of data set: Direct yield reduction assay (DYRA), ZIKV in Huh7 cells. In kind it is cell-based, Zika virus. As to conditions: Zika virus, Huh-7; Huh7 cells, DYRA, 72 h; read-out: ZIKV Huh7 IC50.
The conditions of data set [3]: C57BL/6 mice, up to 180 mg/kg; cited from earlier work.
Data set [4] in a line: Stability in medium/serum solution. As to conditions: EMEM, 2 mM L-glut, 1 % FBS, 1 % Pen/Strep, 37 °C. It is filed as in vitro ADME.
The subject of the next data set is hRV14. Further details: method as in PMID 31729878. As to conditions: HeLa cells; cited from earlier work.
The nature of data set [5]: in vitro. As to conditions: human.
In data set [6] the test system is SARS-CoV-2. The experiment in a line: microbe, parasite or virus in culture. In kind it is cell-based. As to conditions: Severe acute respiratory syndrome coronavirus 2; Calu-3 cells, 72 h incubation, ±SD; NA: Not active; read-out: SARS-CoV-2 Calu-3 IC50 (DYRA protocol).
Data set [7] in a line: in vitro. As to conditions: human. The source holds these as a separate data set.
Another data set addresses T1, PI4KIIIβ (Homo sapiens, UniProt Q9UBF8).
T1 construct: Recombinant full length, HIS6 -tagged PI4KIIIβ was purchased from ProQinase; His6; purchased ProQinase (Germany)
Kind of data set: In vitro kinase inhibition assay, PI4KIIIβ. As to conditions: mean of at least three independent experiments; 20 μM ATP. It is filed as biochemical.

The nature of data set [8]: in vitro. In kind it is in vitro ADME. As to conditions: PAMPA, 5 h, 500 μM, pH 7.4. The procedure: (§1) appropriate calibration curve. For each compound, the determination was performed in three […]
(§2) Parallel Artificial Membrane Permeability Assay (PAMPA)
(§3) Each ‘donor solution’ was prepared from a solution of each compound (DMSO, 1 mM) diluted with 25 mM Phosphate Buffered Saline (PBS) at pH 7.4, up to a final concentration of 500 μM. The donor wells were filled with 150 µL of ‘donor solution’. The filters were coated with 5 μL of a solution of phosphatidylcholine in dodecane 1% (w/v) and the lower wells filled with 300 µL of ‘acceptor solution’ (50% v/v DMSO and PBS). The sandwich plate was assembled and incubated for 5 hours at room temperature under gentle shaking. At the end of the incubation time, the sandwich was disassembled and the amount of compound in the donor and acceptor wells was measured by LC-UV-MS. For each compound, the determination was performed in three independent experiments.
Apparent permeability (Papp) and membrane retention (%MR) were calculated according to the equations reported in reference. […]

The conditions of data set [9]: pH 7.4; cited from earlier work.
Data set [10] can be described thus: in vitro. As to conditions: human. This is another data set of the same source.
The next data set deals with hRV2. Set-up: method as in PMID 31729878. As to conditions: HeLa cells; cited from earlier work.
A short description of data set [11]: Cytotoxicity assay (CellTiter-Glo 2.0) in Calu-3 cells. As to conditions: human, half-maximal cytotoxic concentration, read-out: SARS-CoV-2 Calu-3 CC50. It is filed as cell-based.
For another data set, the system named is coxsackievirus B3 (CVB3). Set-up: method as in PMID 28122178, PMID 31729878. As to conditions: at low micromolar concentration; cited from earlier work.
Data set [12] in a line: Stability in medium/serum solution. As to conditions: EMEM, 2 mM L-glut, 1 % FBS, 1 % Pen/Strep, 37 °C. In kind it is in vitro ADME. The procedure: as §1, §2, §3
Apparent permeability (Papp) and membrane retention (%MR) were calculated according to the equations reported in reference.
Stability in Human Plasma
Pooled human plasma (1.5 mL, […]), PBS (1.4 mL, pH 7.4, 25 mM) and tested compound dissolved in DMSO (100 µL, 3.0 mM) were mixed in a test tube that was incubated at 37 […]
mixed with 600 µL of cold acetonitrile and centrifuged at 5000 rpm for 15 min [3]. The supernatant was removed and analyzed by LC-UV-MS. For each compound, the determination was performed in three independent experiments.
Stability in Medium/Serum solution
The stability of compounds under the experimental conditions used in the ENTRY-DYRA antiviral assay was evaluated. Each tested compound dissolved din DMSO (1.0 mL, 400 µM) was mixed in a test tube with EMEM, 2 mM L-glut, 1% FBS, 1% Pen/Strep solution (final concentration of the compound of 200 µM) and then incubated at 37 °C. At set time points (0.0, 0.08, 0.25, 0.50, 1.0, 3.0, and 24.0 h), samples of 100 µL were taken, mixed with 400 µL of cold acetonitrile and centrifuged at 5000 rpm for 15 min. The supernatant was removed and analyzed by UV/LC-MS. For each compound, the determination was performed in three independent experiments.
This is another data set of the same source.

As usually defined, the IC50 is the midpoint of a concentration-inhibition curve. One may read the viability as a per cent measure of how many cells are alive, often set against a control.

Marks after values point to notes of the source that are not given here. A value given as a limit tells only on which side of the number the result lay.

T1 sequence (Q9UBF8 whole entry): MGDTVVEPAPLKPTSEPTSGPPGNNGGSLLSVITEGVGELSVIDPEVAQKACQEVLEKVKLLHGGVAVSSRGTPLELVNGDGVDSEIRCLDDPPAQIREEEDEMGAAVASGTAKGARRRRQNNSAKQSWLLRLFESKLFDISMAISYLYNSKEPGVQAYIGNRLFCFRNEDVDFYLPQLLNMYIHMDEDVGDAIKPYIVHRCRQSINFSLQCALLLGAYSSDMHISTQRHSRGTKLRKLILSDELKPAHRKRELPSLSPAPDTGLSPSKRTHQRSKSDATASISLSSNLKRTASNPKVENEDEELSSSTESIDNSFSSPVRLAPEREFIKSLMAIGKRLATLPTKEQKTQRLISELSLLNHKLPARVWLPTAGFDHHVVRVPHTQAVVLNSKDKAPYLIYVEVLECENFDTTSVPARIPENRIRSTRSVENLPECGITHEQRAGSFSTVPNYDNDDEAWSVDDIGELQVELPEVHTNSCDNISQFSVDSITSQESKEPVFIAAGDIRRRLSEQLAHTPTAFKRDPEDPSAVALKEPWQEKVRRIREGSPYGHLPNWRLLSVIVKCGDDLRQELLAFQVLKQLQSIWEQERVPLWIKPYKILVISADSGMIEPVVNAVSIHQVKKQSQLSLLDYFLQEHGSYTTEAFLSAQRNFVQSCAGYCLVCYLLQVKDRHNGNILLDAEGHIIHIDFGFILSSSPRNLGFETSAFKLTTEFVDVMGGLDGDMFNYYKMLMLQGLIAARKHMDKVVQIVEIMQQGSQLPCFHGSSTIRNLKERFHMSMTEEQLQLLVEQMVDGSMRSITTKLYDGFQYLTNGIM

On to `CC(=O)c1cccc(N(CCO)c2nc(-c3sc(NC(=O)C(C)(C)C)nc3C)cs2)c1` [compound 2], for which the “SARS-CoV-2 Calu-3 IC50 (ENTRY-DYRA conditions, in parenthesis)” value in the data set on SARS-CoV-2 [1] is recorded as “no effect on the entry phase”. The Papp in data set [2] is on record as 1,1 10^−6 cm/sec. Further, the “inhibition of EV-A71 replication in infected cells” value with Enterovirus-A71 (EV-A71) is recorded as “inhibited”. In addition, the 50% inhibitory concentration (IC50) with ZIKV is 1000 ± 100 nM; with hRV14, more than 9.1 µM; in the data set with SARS-CoV-2 [6], 3.95 ± 1.48 µM; on PI4KIIIβ, 2100 ± 170 nM; with hRV2, 6.1 µM. Besides, in data set [3], the “tolerability, acute toxicity and histological alterations in key biodistribution organs” value is given as “well tolerated”. Moreover, the “Stability in Medium/Serum 48 h” value in data set [4] stood at 90.4%. Also, in the data set “in vitro [5]”, the CC50 at 3 days was 17 µM. Also, the values for the CC50 (in the data set “in vitro [7]”; in data set [11]) were 16 µM and 40 µM, respectively. The “Membrane Retention (% MR)” value in “in vitro [8]” is listed as less than 0.1%. In [9], the “Aqueous Solubility” value was 0.05* μg/mL. The viability at 4 h, 50 µM in the data set “in vitro [10]” stood at 94.5%. In the data set with coxsackievirus B3 (CVB3), the “inhibition of CVB3 replication in infected cells” value is on record as “inhibited”. Also, the “Stability in Medium/Serum 24 h” value in [12] is recorded as 98.5%.
